{
  "source": "patent US11020405B2",
  "about": "“Method for prevention or treatment of diabetic complications” (KANGWON NATIONAL UNIVERSITY UNIVERSITY-INDUSTRY COOPERATION …, priority 2017, dated 2021)",
  "key": {"[1]": {"tested_on": "human retinal endothelial cells (HRECs)", "assay": "Identification of receptor of midazolam through ROS concentration analysis", "type": "cell-based", "details": "0-50 μM flumazenil or 0-30 μM PK11195 1 hr, then 20 μM midazolam 30 min, then 10 ng/ml VEGF (FIG. 10B)", "protocol": "With reference to FIG. 10A, the HRECs of Test Example 1 were subjected to the respective treatments below, cultured for 10 min, treated with 10 μM H2DCFDA, stained for 10 min in a phenol-red-free low-serum medium, and measured using confocal microscopy to thus determine the fluorescence intensity of single cells.\n(§1) As will be described below, flumazenil was used as a GABAA receptor antagonist and PK11195 was used as a TSOP receptor antagonist.\nWith reference to FIG. 10B, the HRECs of Test Example 1 were treated with 0 μM, 0.01 μM, 0.1 μM, 1 μM, 10 μM, 20 μM, and 50 μM flumazenil and 0 μM, 0.01 μM, 0.1 μM, 1 μM, 3 μM, 10 μM, and 30 μM PK11195, cultured for 1 hr, treated with 20 μM midazolam, cultured for 30 min, treated with 10 ng/ml VEGF, incubated for 10 min, treated with 10 μM H2DCFDA, stained for 10 min in a phenol-red-free low-serum medium, and then measured using confocal microscopy to thus determine the fluorescence intensity of single cells."}, "TGase [2]": {"tested_on": "TGase", "assay": "Analysis of TGase activity in retinas of diabetic mouse model", "type": "in vivo, C57BL/6 mice", "details": "intravitreal 3 μL of 0.4 mM flumazenil in two administrations and 2 μL of 2 mM midazolam, group excluded from those without significant increase", "protocol": "6-week-old male C57BL/6 mice (DBL, EumSeong, Korea) were administered with streptozotocin (Sigma-Aldrich) dissolved in a 100 mM citrate buffer (pH 4.5) through intraperitoneal injection in an amount of 150 mg each per kg of mouse weight to give diabetic mouse models. In the diabetic mouse models, the blood glucose level was 19 mM or more when not fasting, and polyuria and diabetes, considered signs of diabetes, were observed. […]\n48 μL of 100 mM 5-(biotinamido)pentylamine was injected into the left ventricle of each of normal mice (Normal), midazolam-administered normal mice (Midazolam), diabetic mice (Diabetic), midazolam-administered diabetic mice (Diabetic+Midazolam), flumazenil- and midazolam-administered diabetic mice (Diabetic+flumazenil+Midazolam), cystamine-administered diabetic mice (Diabetic+cystamine) and MDC-administered diabetic mice (Diabetic+MDC) and circulated for 10 min, after which cervical dislocation was performed, and the eyeballs were extracted, fixed with 4% paraformaldehyde for 45 min, incised and subjected to permeation treatment for 30 min. The obtained retinal samples were incubated with a blocking solution for 30 min, treated with FITC-conjugated streptavidin (1:200, v/v), stained for 1 hr, and measured using confocal microscopy. […]"}, "[3]": {"tested_on": "retinal vessels of diabetic mice", "assay": "Fluorescein angiography for mouse model (retinal vascular leakage)", "type": "in vivo, C57BL/6 mice", "details": "intravitreal 3 μL of 0.4 mM flumazenil in two administrations and 2 μL of 2 mM midazolam, group excluded from those without significant increase"}, "TGase [4]": {"tested_on": "TGase", "assay": "Identification of receptor of midazolam through TGase activity analysis", "type": "cell-based, human", "details": "HRECs, 0-50 μM flumazenil or 0-30 μM PK11195 1 hr, then 20 μM midazolam 30 min, then 10 ng/ml VEGF (FIG. 11B)", "protocol": "With reference to FIG. 11A, the HRECs of Test Example 1 were subjected to the respective treatments below, cultured for 2 hr, treated with 1 mM 5-(biotinamido)pentylamine, incubated for 1 hr, fixed with 3.7% formaldehyde, treated with 0.2% triton X-100, treated with a blocking solution containing 138 mM NaCl, 0.1% Tween 20 and 2% BSA dissolved in a 20 mM Tris (pH 7.6) buffer, incubated for 30 min, incubated with FITC-conjugated streptavidin (1:200, v/v) for 1 hr, and then measured using confocal microscopy to thus determine the fluorescence intensity of single cells.\nas §1\nWith reference to FIG. 11B, the HRECs of Test Example 1 were treated with 0 μM, 0.01 μM, 0.1 μM, 1 μM, 10 μM, 20 μM, and 50 μM flumazenil and 0 μM, 0.01 μM, 0.1 μM, 1 μM, 3 μM, 10 μM, and 30 μM PK11195, cultured for 1 hr, treated with 20 μM midazolam, cultured for 30 min, treated with 10 ng/ml VEGF, incubated for 10 min, treated with 1 mM 5-(biotinamido)pentylamine, incubated for 1 hr, fixed with 3.7% formaldehyde, treated with 0.2% triton X-100, treated with a blocking solution containing 138 mM NaCl, 0.1% Tween 20 and 2% BSA dissolved in a 20 mM Tris (pH 7.6) buffer, incubated for 30 min, incubated with FITC-conjugated streptavidin (1:200, v/v) for 1 hr, and then measured using confocal microscopy to thus determine the fluorescence intensity of single cells."}},
  "data": [
    {"smiles": "CCOC(=O)c1ncn2c1CN(C)C(=O)c1cc(F)ccc1-2", "note": "[flumazenil]", "values": [
      {"measurement": "ROS concentration in midazolam- and VEGF-treated cells after receptor antagonist", "setting": "[1]", "result": "an increase in ROS concentration with an increase in flumazenil concentration"},
      {"measurement": "TGase activity in retina compared to normal mice, flumazenil given with midazolam", "setting": "TGase [2]", "result": "excluding the diabetic mice (Diabetic) and the flumazenil- and midazolam-administered diabetic mice"},
      {"measurement": "retinal vascular leakage compared to normal mice, flumazenil given with midazolam", "setting": "[3]", "result": "excluding the diabetic mice (Diabetic) and the flumazenil- and midazolam-administered diabetic mice"},
      {"measurement": "TGase activity in midazolam- and VEGF-treated cells after receptor antagonist", "setting": "TGase [4]", "result": "an increase in TGase activity with an increase in flumazenil concentration"}
    ]}
  ]
}
